Data set [1] addresses fructose-1,6-bisphosphate aldolase (F-1,6-BP aldolase) from Staphylococcus carnosus, class I, purified (Staphylococcus carnosus, UniProt Q07159). The note with it: read-out: Km for F-1-P; cleavage of F-1-P to DHAP and glyceraldehyde; 37° C., pH 7.5. How it is done:
Purified aldolase (40 μg/ml) was used for characterizing the enzyme, and 120 μg/ml were used for molecular weight determination.

Data set [2] has as its system O=C(COP(=O)(O)O)[C@@H](O)[C@H](O)[C@H](O)COP(=O)(O)O. Nature of the data set: purified protein, by the assay type. The settings on record: other: cleavage of F-1,6-BP to DHAP and glyceraldehyde 3-phosphate, 37° C., pH 7.5.

Our source for the Km values is patent publication US5162221A (Forschungszentrum Juelich GmbH, priority 1989, dated 1992).

Sequence of fructose-1,6-bisphosphate aldolase (F-1,6-BP aldolase) from Staphylococcus carnosus, class I, purified (Q07159 whole entry): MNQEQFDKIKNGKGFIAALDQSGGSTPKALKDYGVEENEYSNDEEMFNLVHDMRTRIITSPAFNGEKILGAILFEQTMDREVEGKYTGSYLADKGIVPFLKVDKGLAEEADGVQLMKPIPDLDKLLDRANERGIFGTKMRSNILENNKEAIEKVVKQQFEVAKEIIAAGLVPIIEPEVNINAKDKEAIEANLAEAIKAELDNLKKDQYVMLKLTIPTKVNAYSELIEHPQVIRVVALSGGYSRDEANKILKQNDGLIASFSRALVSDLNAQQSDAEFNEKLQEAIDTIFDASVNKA

By Km is commonly meant the substrate concentration at which the rate is half of its maximum. `O=C(COP(=O)(O)O)[C@@H](O)[C@H](O)[C@H](O)CO` [F-1-P]: in data set [1], the Km worked out at 18.8 mM.
Take “fructose-1,6-bisphosphate aldolase (F-1,6-BP aldolase) from Staphylococcus carnosus, class I, purified (Staphylococcus carnosus subsp. carnosus TM300)”: the Michaelis constant (Km) in data set [2] turned out to be 0.022 mM.
